The record followed here is PubChem BioAssay AID602446 (National Center for Advancing Translational Sciences (NCATS), 2012).

The subject of this data set is Caco-2 permeability efflux ratio. Kind of data set: High Content Assay for Compounds that inhibit the Assembly of the Perinucleolar Compartment: Efflux Ratio. The source says: The perinucleolar compartment (PNC) is a non-membrane-bound nuclear subdomain that is associated with but structurally distinct from the nucleolus. The PNC is a heritable trait, in which the number of PNCs per cell in daughter cells often mimics that of their mother cells. The PNC is heterogeneous in shape, is stable through interphase, disassembles during mitosis, and reassembles in early G1. The PNC is concentrated with newly synthesized RNA polymerase III (pol III) RNAs (MRP RNA, RNAse P H1 RNA, hY RNAs[hY1, 2, 5], Alu RNA, and SRP [7SL] RNA) and RNA binding proteins (nucleolin, PTB, CUG-BP, KSRP, Raver1, Raver2, and Rod).
In collaboration between Sui Huang from Northwestern University and the NCGC, a high content assay was developed and screened. The hits were then tested in follow-up assays. High-content tumor cell migration assays in 3-dimensional extracellular matrices are powerful tools for modeling and understanding the biology of this critical step in the process of metastasis. However, most of the available methods are not amenable to the throughput required by studies of comparative pharmacology or small scale screening. […]
8. […] The T0, LY and T90, LY plates are read by FlexStation 3 at excitation of 485 nm and emission of 535 nm to determine LY permeability. […]

As usually defined, the efflux ratio is a quotient of directional permeabilities that is used to spot active efflux. As to `N=c1c2c(-c3ccccc3)c(-c3ccccc3)n(Cc3ccccc3)c2ncn1C1CCC(O)CC1` (stereo unspecified), the efflux ratio is 11.
